According to patent publication EP2366431A1, “Myeloperoxidase as a target in atrial fibrillation” (Universitätsklinikum Hamburg-Eppendorf, priority 2010, dated 2011):

Experiments:
[1] = tested on: Langendorff perfused hearts from WT and Mpo^-/- mice; test: Epicardial mapping of Langendorff-perfused hearts; settings: atria from AngII treated Mpo^-/- mice, in contrast to AngII challenged WT mice
Experimental: (§1) Angiotensin II and myeloperoxidase treatment of mice. We treated male C57BL/6J (WT) and MPOtmllus mice (Mpo^-/^-) on a C57BL/6 background, aged 12-15 weeks, via ALZET osmotic pumps with angiotensin II (AngII, 1.5 ng/g body weight/minute) or saline (vehicle) for 14 days prior to electrophysiological investigation (EPI). We treated another cohort of WT and Mpo^-/- mice via ALZET osmotic pumps with a connected jugular catheter with recombinant MPO (5.0, 12.5 and 50 pg/g body weight/minute, which we calculated to generate physiological plasma levels of MPO ranging between 100 and 1100 pM, respectively) or recombinant human serum albumin (HSA) for 7 days in combination with either AngII or saline prior to EPI. Animal experiments, conformed with the Guide for the Care and Use of Laboratory Animals published by the US National Institutes of Health and were approved by the review board of Hamburg and Bonn.
Epicardial mapping of Langendorff-perfused hearts. We determined spontaneous and stimulated myocardial conduction velocities and characteristics of Langendorff perfused hearts by epicardial activation mapping using a 128-electrodearray^21.

[2] = tested on: WT and Mpo^-/- mice; test: Electrophysiological investigation (EPI), induction of AF by right atrial stimulation, surface ECG; format: in vivo
Experimental: as §1
Electrophysiological investigation (EPI). We examined mice electrophysiologically using a single catheter technique ^19,32. We analyzed standard ECG-parameters obtained by a 6-lead-surface-ECG. EPI included transvenous atrial and ventricular recording and stimulation^21. For induction of AF, we performed atrial and ventricular burst and programmed atrial stimulations. We defined atrial fibrillation as rapid and fragmented atrial electrograms with irregular AV-nodal conduction for >1 s. AF-episodes persisting >1 min were classified as sustained AF. Number, duration, and probability of inducible AF-episodes were analyzed.

[3] = tested on: WT and Mpo^-/- mice; test: Radiotelemetric blood pressure measurements; format: in vivo; settings: AngII, Mpo^-/- mice compared with WT mice
Experimental: as §1
Radiotelemetric blood pressure measurements. We performed blood pressure measurements as previously^36. In brief, we inserted the tip of the telemetry device (TA11 PA-C10; Data Sciences International, St. Paul, USA) into the carotid lumen. After 10 days, data acquisition started for 1 minute every 5 minutes for 3 days. […] We recorded blood pressure and heart rate for the following week in MPO treated mice and two weeks in AngII treated animals, respectively.

[4] = tested on: WT mice; test: MPO content in mouse plasma and atrial tissue (ELISA) after angiotensin II infusion; format: in vivo; settings: 2 week subcutaneous infusion of AngII
Experimental: as §1
Assessment of MPO content in human and mouse plasma and atrial tissue. We determined MPO levels by ELISA (human: Prognostix, Cleveland, USA; mouse: hycult biotechnology, The Netherlands).

angiotensin II (DRVYIHPF; Angiotensin-2; UniProt P01019 25-32, looked up) [AngII]
conduction velocity [1]: no retardation in conduction velocity | inducibility of AF ([2]; Mpo^-/- mice, AngII for 14 days): did not affect the inducibility of AF | susceptibility for AF (number and duration of AF-episodes, probability of AF induction) ([2]; WT mice, AngII for 14 days, right atrial electrophysiological stimulation): higher susceptibility for AF | P wave duration ([2]; WT mice, AngII treatment, in vivo surface ECG, p<0.001): significant prolongation | blood pressure elevating effect [3]: blunted | myocardial deposition of MPO [4]: elevated | circulating MPO plasma levels ([4]; 1.5 ng/g body weight/minute): substantially increased
